The values that follow come from US9840507B2, “5,6-dihydro-imidazo[1,2-a]pyrazin-8-ylamine derivatives useful as inhibitors of beta-secretase (BACE)” (Janssen Pharmaceutica, NV, priority 2010, dated 2017).

SMILES strings stand for the structures. Read-outs that look alike come from different tables or passages of the source.

Experiment [1] deals with T1, recombinant BACE1 protein (Homo sapiens, UniProt P56817).
T1 construct: recombinant BACE1 protein in a final concentration of 1 μg/ml
The experiment can be described thus: Biochemical FRET based assay. To be noted: recombinant BACE1 1 μg/ml, 10 μm substrate, 120 minutes, room temperature, pH 5.0; for IC50: read-out: Biochemical FRET based assay pIC50 (converted). The text has this: This assay is a Fluorescence Resonance Energy Transfer Assay (FRET) based assay. The substrate for this assay is an APP derived 13 amino acids peptide that contains the ‘Swedish’ Lys-Met/Asn-Leu mutation of the amyloid precursor protein (APP) β-secretase cleavage site. This substrate also contains two fluorophores: (7-methoxycoumarin-4-yl) acetic acid (Mca) is a fluorescent donor with excitation wavelength at 320 nm and emission at 405 nm and 2,4-Dinitrophenyl (Dnp) is a proprietary quencher acceptor. […] Upon cleavage by BACE1, the fluorophore Mca is separated from the quenching group Dnp, restoring the full fluorescence yield of the donor. The increase in fluorescence is linearly related to the rate of proteolysis (Koike H et al. J. Biochem. 1999, 126, 235-242).
Briefly in a 384-well format recombinant BACE1 protein in a final concentration of 1 μg/ml is incubated for 120 minutes at room temperature with 10 μm substrate in incubation buffer (40 mM Citrate buffer pH 5.0, 0.04% PEG, 4% DMSO) in the absence or presence of compound. Next the amount of proteolysis is directly measured by fluorescence measurement at T=0 and T=120 (excitation at 320 nm and emission at 405 nm).
(§1) LC=Median of the low control values
=Low control: Reaction without enzyme
(§2) HC=Median of the High control values
=High Control: Reaction with enzyme % Effect=100−[(sample−LC)/(HC−LC)*100] % Control=(sample/HC)*100% % Controlmin=(sample−LC)/(HC−LC)*100

The subject of experiment [2] is Aβ42 produced and secreted into the medium of human neuroblastoma SKNBE2 cells. The experiment can be described thus: Cellular αlisa assay in SKNBE2 cells, Aβ42. The experiment is classed as cell-based. The note with it: for IC50: Homo sapiens, SKNBE2, 18 h, read-out: Cellular αlisa assay in SKNBE2 cells Aβ42 pIC50 (converted). On the procedure: (§3) In two αlisa assays the levels of Aβtotal and Aβ42 produced and secreted into the medium of human neuroblastoma SKNBE2 cells are quantified. The assay is based on the human neuroblastoma SKNBE2 expressing the wild type Amyloid Precursor Protein (hAPP695). The compounds are diluted and added to these cells, incubated for 18 hours and then measurements of Aβ42 and Aβtotal are taken. Aβtotal and Aβ42 are measured by sandwich αlisa. αlisa is a sandwich assay using biotinylated antibody AbN/25 attached to streptavidin coated beads and antibody Ab4G8 or cAb42/26 conjugated acceptor beads for the detection of Aβtotal and Aβ42 respectively. In the presence of Aβtotal or Aβ42, the beads come into close proximity. The excitation of the Donor beads provokes the release of singlet oxygen molecules that triggers a cascade of energy transfer in the Acceptor beads, resulting in light emission. Light emission is measured after 1 hour incubation (excitation at […] and emission at 615 nm).
(§4) A best-fit curve is fitted by a minimum sum of squares method to the plot of % Controlmin versus compound concentration.
as §1
(§5) =Low control: cells preincubated without compound, without biotinylated Ab in the αlisa
as §2
(§6) =High Control: cells preincubated without compound % Effect=100−[(sample−LC)/(HC−LC)*100] % Control=(sample/HC)*100% % Controlmin=(sample−LC)/(HC−LC)*100

The test system of experiment [3] is Aβtotal produced and secreted into the medium of human neuroblastoma SKNBE2 cells. The experiment in a line: Cellular αlisa assay in SKNBE2 cells, Aβtotal. The experiment is classed as cell-based. To be noted: for IC50: Homo sapiens, SKNBE2, 18 h, read-out: Cellular αlisa assay in SKNBE2 cells Aβtotal pIC50 (converted). The method, then: as §3, §4, §1, §5, §2, §6

Where [4] appears, read: SKNBE2 cells expressing hAPP695, incubated for 18 hours.

T1 sequence (P56817 46-501): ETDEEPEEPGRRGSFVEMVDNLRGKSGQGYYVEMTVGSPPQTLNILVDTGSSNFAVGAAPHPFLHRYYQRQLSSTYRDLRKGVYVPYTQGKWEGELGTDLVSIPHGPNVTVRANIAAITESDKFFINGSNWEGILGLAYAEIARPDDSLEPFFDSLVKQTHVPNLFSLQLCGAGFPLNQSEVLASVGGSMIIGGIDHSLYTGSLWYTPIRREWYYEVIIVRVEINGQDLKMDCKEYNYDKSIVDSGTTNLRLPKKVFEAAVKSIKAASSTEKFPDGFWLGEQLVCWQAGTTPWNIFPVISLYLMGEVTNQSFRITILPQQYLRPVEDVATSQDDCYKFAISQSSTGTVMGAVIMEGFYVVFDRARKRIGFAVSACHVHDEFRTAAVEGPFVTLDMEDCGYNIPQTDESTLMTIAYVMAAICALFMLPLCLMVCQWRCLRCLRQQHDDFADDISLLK

Regarding `CC1(c2cccc(NC(=O)c3ccc(Cl)cn3)c2)Cn2ccnc2C(N)=N1` (racemic) [Compound 6, rac-5-chloro-pyridine-2-carboxylic acid [3-(8-amino-6-methyl-5,6-dihydro-imidazo[1,2-a]pyrazin-6-yl)-phenyl]-amide], the IC50 in experiment [1] was 331 nM; in experiment [2] (setting [4]), 70.8 nM; in experiment [3] (setting [4]), 69.2 nM.
Turning to `CC1(c2cccc(-c3cncnc3)c2)Cn2ccnc2C(N)=N1` (racemic) [Compound 1, rac-6-methyl-6-(3-pyrimidin-5-yl-phenyl)-5,6-dihydro-imidazo[1,2-a]pyrazin-8-ylamine], the IC50 was 9770 nM in experiment [1], 191 nM in experiment [2] (setting [4]) and 174 nM in experiment [3] (setting [4]).
Consider `COc1cnc(C(=O)Nc2ccc(F)c([C@]3(C)Cn4cc(Br)nc4C(N)=N3)c2)cn1` [Compound 55], for which the IC50 in experiment [1] was 112 nM; in experiment [2] (setting [4]), 31.6 nM; in experiment [3] (setting [4]) it was 32.4 nM.
`C[C@@]1(c2cc(NC(=O)c3ccc(F)cn3)ccc2F)Cn2cc(Br)nc2C(N)=N1` [Compound 54]: the IC50 was 75.9 nM in experiment [1], 32.4 nM in experiment [2] (setting [4]) and 35.5 nM in experiment [3] (setting [4]).
Taken in the same sequence, the figures for `NC1=NC(c2cc(NC(=O)c3ncc(Cl)cc3F)ccc2F)(C(F)F)Cn2ccnc21` (stereo not drawn) [Compound 33] were 224 nM, 355 nM and 275 nM.
On the same counts, the results for `C[C@@]1(c2cc(NC(=O)c3ccc(Cl)cn3)ccc2F)Cn2cc(C(F)F)nc2C(N)=N1` [Compound 50] are 58.9 nM, 7.41 nM and 8.13 nM.
With `C[C@@]1(c2cccc(-c3cc(Cl)cc(Cl)c3)c2)Cn2ccnc2C(N)=N1` [Compound 5, (R)-6-(3′,5′-dichloro-biphenyl-3-yl)-6-methyl-5,6-dihydro-imidazo[1,2-a]pyrazin-8-ylamine], the results for the IC50 in experiment [1], in experiment [2] and in experiment [3] were 14100 nM, 5890 nM and 5010 nM, respectively.
For `CC1(c2cc(-c3cncnc3)c(F)cc2F)Cn2ccnc2C(N)=N1` (single isomer, unassigned) [Compound 11], the IC50 in experiment [1] was 16600 nM; in experiment [2] (setting [4]), 2340 nM; in experiment [3] (setting [4]) it was 1950 nM.
For `NC1=NC(c2cc(NC(=O)c3ccc(F)cn3)ccc2F)(C(F)F)Cn2ccnc21` (stereo not drawn) [Compound 29], the IC50 in experiment [1] was greater than 30200 nM. For the same compound, the “Cellular αlisa assay in SKNBE2 cells Aβ42 pIC50” value in experiment [2] (setting [4]) was less than 5. In addition, in experiment [3] (setting [4]), the “Cellular αlisa assay in SKNBE2 cells Aβtotal pIC50” value was less than 5.
Turning to `C[C@@]1(c2cc(NC(=O)c3ccc(F)cn3)ccc2F)Cn2cc(Cl)nc2C(N)=N1` [Compound 53], the figures for the IC50 in experiment [1], in experiment [2] (setting [4]) and in experiment [3] (setting [4]) were 61.7 nM, 36.3 nM and 35.5 nM, respectively.
Taken in the same sequence, the figures for `C[C@@]1(c2cc(NC(=O)c3ccc(F)cn3)ccc2F)Cn2c(Cl)cnc2C(N)=N1` [Compound 58] were 75.9 nM, 20 nM and 20 nM.
Taken in the same sequence, the figures for `Cc1nc(C(=O)Nc2ccc(F)c([C@]3(C)Cn4ccnc4C(N)=N3)c2)c(C)o1` [Compound 46] were 380 nM, 89.1 nM and 83.2 nM.
On the same counts, the results for `Cc1nc(C(=O)Nc2ccc(F)c([C@]3(C)Cn4cc(C(F)(F)F)nc4C(N)=N3)c2)co1` [Compound 38] are 100 nM, 42.7 nM and 41.7 nM.
For the compound `Cc1nc(C(=O)Nc2ccc(F)c([C@]3(C)Cn4cc(C(F)(F)F)nc4C(N)=N3)c2)c(C)o1` [Compound 41], the IC50 in experiment [1] was 178 nM; in experiment [2] (setting [4]) it was 120 nM; in experiment [3] (setting [4]) it was 117 nM.
Taken in the same sequence, the figures for `COc1cnc(C(=O)Nc2ccc(F)c([C@]3(C)Cn4c(Cl)cnc4C(N)=N3)c2)cn1` [Compound 57] were 66.1 nM, 13.5 nM and 14.8 nM.
For `COc1cncc(-c2cccc(C3(C)Cn4ccnc4C(N)=N3)c2)c1` (racemic) [Compound 2, rac-6-[3-(5-methoxy-pyridin-3-yl)-phenyl]-6-methyl-5,6-dihydro-imidazo[1,2-a]pyrazin-8-ylamine], the “Biochemical FRET based assay pIC50” value in experiment [1] is reported as greater than 4.52. The results for the IC50 in experiment [2] (setting [4]) and in experiment [3] (setting [4]) were 2140 nM and 2340 nM, respectively.
As for `COc1cnc(C(=O)Nc2ccc(F)c([C@]3(C)Cn4cc(C(F)(F)F)nc4C(N)=N3)c2)cn1` [Compound 26], the values for the IC50 in experiment [1], in experiment [2] (setting [4]) and in experiment [3] (setting [4]) were 234 nM, 85.1 nM and 72.4 nM, respectively.
On to `NC1=NC(c2cc(NC(=O)c3ccc(F)cn3)ccc2F)(C(F)F)Cn2ccnc21` (stereo not drawn) [Compound 28], for which, in experiment [1], the IC50 was 295 nM. Moreover, in experiment [2] (setting [4]), the “Cellular αlisa assay in SKNBE2 cells Aβ42 pIC50” value is recorded as 6.17. The “Cellular αlisa assay in SKNBE2 cells Aβtotal pIC50” value in experiment [3] (setting [4]) is reported as 6.19.
Take `C[C@@]1(c2cc(NC(=O)c3ncc(Cl)cc3Cl)ccc2F)Cn2ccnc2C(N)=N1` [Compound 19]: the IC50 in experiment [1] is 49 nM; in experiment [2] (setting [4]), 11 nM; in experiment [3] (setting [4]), 9.77 nM.
Taken in the same sequence, the figures for `C[C@@]1(c2cc(NC(=O)c3ccn(C(F)F)n3)ccc2F)Cn2ccnc2C(N)=N1` [Compound 42] were 115 nM, 19.1 nM and 20 nM.
On the same counts, the results for `C[C@@]1(c2cc(NC(=O)c3ncc(C#N)cc3F)ccc2F)Cn2ccnc2C(N)=N1` [Compound 22] are 95.5 nM, 9.55 nM and 8.51 nM.
On the same counts, the results for `C[C@@]1(c2cc(NC(=O)c3ncc(Cl)cc3F)ccc2F)Cn2ccnc2C(N)=N1` [Compound 20] are 75.9 nM, 17.4 nM and 17.8 nM.
With `COc1cnc(C(=O)Nc2ccc(F)c([C@]3(C)Cn4cc(Cl)nc4C(N)=N3)c2)cn1` [Compound 52], the figures for the IC50 in experiment [1], in experiment [2] (setting [4]) and in experiment [3] (setting [4]) were 97.7 nM, 40.7 nM and 38 nM, respectively.
Take `C[C@@]1(c2cc(NC(=O)c3ccc(F)cn3)ccc2F)Cn2c(C#N)cnc2C(N)=N1` [Compound 66, (R)—N-{3-[8-amino-3-cyano-6-methyl-5,6-dihydroimidazo[1,2-a]pyrazin-6-yl]-4-fluorophenyl}-5-fluoropyridine-2-carboxamide]: the IC50 in experiment [1] is 63.1 nM.
In the case of `CC1(c2cc(-c3cncnc3)ccc2F)Cn2ccnc2C(N)=N1` (single isomer, unassigned) [Compound 7], the IC50 was 20000 nM in experiment [1], 2750 nM in experiment [2] (setting [4]) and 2400 nM in experiment [3] (setting [4]).
Taken in the same sequence, the figures for `Cc1nc(C(=O)Nc2ccc(F)c([C@]3(C)Cn4cc(C(F)(F)F)nc4C(N)=N3)c2)c(C(F)(F)F)o1` [Compound 39] were 269 nM, 158 nM and 158 nM.
Taken in the same sequence, the figures for `Cc1nc(C(=O)Nc2ccc(F)c([C@]3(C)Cn4ccnc4C(N)=N3)c2)c(C(F)(F)F)o1` [Compound 44] were 380 nM, 95.5 nM and 93.3 nM.
In the case of `C[C@@]1(c2cc(NC(=O)c3ccn(C(F)F)n3)ccc2F)Cn2cc(C(F)(F)F)nc2C(N)=N1` [Compound 37], the values for the IC50 in experiment [2] (setting [4]) and in experiment [3] (setting [4]) were 15.8 nM and 16.6 nM, respectively.
Take `C[C@@]1(c2cc(NC(=O)c3ccn(C(F)F)n3)ccc2F)Cn2cc(C(F)F)nc2C(N)=N1` [Compound 51]: in experiment [1], the IC50 is 162 nM.
`CC1(c2cc(NC(=O)c3ccc(Cl)cn3)ccc2F)Cn2ccnc2C(N)=N1` (single isomer, unassigned) [Compound 8]: the IC50 in experiment [2] (setting [4]) is 12.3 nM; in experiment [3] (setting [4]) it was 11 nM.
